In patent publication US9815846B2 (Merck Sharp & Dohme Corp., priority 2014, dated 2017) one finds IC50 data, which are given here for 22 compounds.

What is called IC50 is the midpoint of a concentration-inhibition curve. A lower IC50 goes with greater potency.

Each structure is given as a SMILES string.

human TrkA receptor, sequence (P04629 33-796): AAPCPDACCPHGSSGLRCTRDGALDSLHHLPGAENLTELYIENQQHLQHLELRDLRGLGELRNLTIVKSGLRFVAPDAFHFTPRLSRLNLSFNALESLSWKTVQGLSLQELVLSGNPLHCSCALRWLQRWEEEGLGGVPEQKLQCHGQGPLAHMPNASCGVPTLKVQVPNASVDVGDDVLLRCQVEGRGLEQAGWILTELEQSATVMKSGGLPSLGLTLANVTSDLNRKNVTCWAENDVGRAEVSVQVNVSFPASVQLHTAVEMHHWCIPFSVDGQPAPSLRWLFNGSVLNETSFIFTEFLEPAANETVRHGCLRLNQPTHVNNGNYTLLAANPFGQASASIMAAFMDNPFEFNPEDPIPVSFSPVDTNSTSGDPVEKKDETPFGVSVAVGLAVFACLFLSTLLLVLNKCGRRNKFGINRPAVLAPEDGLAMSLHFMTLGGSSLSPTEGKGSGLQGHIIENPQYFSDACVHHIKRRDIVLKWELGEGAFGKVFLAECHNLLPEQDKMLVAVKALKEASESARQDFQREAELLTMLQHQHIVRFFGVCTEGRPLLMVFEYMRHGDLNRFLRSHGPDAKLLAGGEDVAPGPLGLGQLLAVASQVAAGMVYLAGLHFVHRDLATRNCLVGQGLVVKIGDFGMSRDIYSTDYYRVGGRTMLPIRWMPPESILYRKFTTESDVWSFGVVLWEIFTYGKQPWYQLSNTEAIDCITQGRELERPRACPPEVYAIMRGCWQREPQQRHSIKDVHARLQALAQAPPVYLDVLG

This assay concerns the target human TrkA receptor (Homo sapiens (Human), UniProt P04629). The experiment in a line: DiscoverX PathHunter TrkA functional assay (NGF-stimulated U2OS cells). It counts as cell-based. The conditions noted are these: U2OS cells expressing human TrkA-PK, Shc1-EA and p75NTR; compound 1 h, then NGF at ~80% of maximal response for 3 h; luminescence.
Compound `Cn1ccc(-c2cc(C(=O)Nc3cnc(OCC(N)=O)nc3-c3ccccc3)c(F)cc2C(F)(F)F)n1` [Example 216, N-(2-(2-Amino-2-oxoethoxy)-4-phenylpyrimidin-5-yl)-2-fluoro-5-(1-methyl-1H-pyrazol-3-yl)-4-(trifluoromethyl)benzamide] yielded an IC50 of 1.8 nM. This counts as single-digit nanomolar. For `COCC(=O)NCc1ncc(NC(=O)c2cc(-c3ccn(C)n3)c(C(F)(F)F)cc2F)c(-c2ccccc2)n1` [Example 64, 2-fluoro-N-(2-((2-methoxyacetamido)methyl)-4-phenylpyrimidin-5-yl)-5-(1-methyl-1H-pyrazol-3-yl)-4-(trifluoromethyl)benzamide] the value was 0.44 nM; for `Cc1ncc(NC(=O)c2cc(-c3ccn(C)n3)c(C(F)(F)F)cc2F)c(-c2ccccc2CO)n1` [Example 136, 2-Fluoro-N-(4-(2-(hydroxymethyl)phenyl)-2-methylpyrimidin-5-yl)-5-(1-methyl-1H-pyrazol-3-yl)-4-(trifluoromethyl)benzamide], 4.4 nM; for `O=C(Nc1cc(-c2ccc(CO)cn2)cnc1-c1ccccc1)c1cc(-c2ncccn2)c(C(F)(F)F)cc1F` [Example 168, 2-fluoro-N-(5-(hydroxymethyl)-6′-phenyl-[2,3′-bipyridin]-5′-yl)-5-(pyrimidin-2-yl)-4-(trifluoromethyl)benzamide], 0.68 nM. For `Cn1ccc(-c2cc(C(=O)Nc3cc4c(nc3-c3ccccc3)CNC(=O)C4)ccc2C(F)(F)F)n1` [Example 142, 3-(1-Methyl-1H-pyrazol-3-yl)-N-(6-oxo-2-phenyl-5,6,7,8-tetrahydro-1,7-naphthyridin-3-yl)-4-(trifluoromethyl)benzamide] the value was 4.7 nM. Compound `Cn1ccc(-c2cc(C(=O)Nc3cnc(C(C)(C)C(N)=O)nc3-c3ccccc3)c(F)cc2C(F)(F)F)n1` [Example 122, N-(2-(1-amino-2-methyl-1-oxopropan-2-yl)-4-phenylpyrimidin-5-yl)-2-fluoro-5-(1-methyl-1H-pyrazol-3-yl)-4-(trifluoromethyl)benzamide] displayed an IC50 of 18 nM.

`NC(=O)Cc1ncc(NC(=O)c2cc(-c3cc[nH]n3)c(C(F)(F)F)cc2F)c(-c2ccccc2)n1` [Example 126, N-(2-(2-amino-2-oxoethyl)-4-phenylpyrimidin-5-yl)-2-fluoro-5-(1H-pyrazol-3-yl)-4-(trifluoromethyl)benzamide] had an IC50 of 17 nM. For `O=C(Nc1cc(N2CCOCC2)cnc1-c1ccccc1)c1ccc(C(F)(F)F)cc1Cl` [Example 1, 2-Chloro-N-(5-morpholino-2-phenylpyridin-3-yl)-4-(trifluoromethyl)benzamide] the value was 480 nM. Take `Cn1ccc(-c2cc(C(=O)Nc3cnc(CN4CCNC4=O)nc3-c3ccccc3)c(F)cc2C(F)(F)F)n1` [Example 77, 2-fluoro-5-(1-methyl-1H-pyrazol-3-yl)-N-(2-((2-oxoimidazolidin-1-yl)methyl)-4-phenylpyrimidin-5-yl)-4-(trifluoromethyl)benzamide]: the IC50 is 1 nM.

With `CNS(=O)(=O)Cc1ccc(NC(=O)c2cc(-c3ccn(C)n3)c(C(F)(F)F)cc2F)c(-c2ccccc2)n1` [Example 200, 2-fluoro-5-(1-methyl-1H-pyrazol-3-yl)-N-(6-((N-methylsulfamoyl)methyl)-2-phenylpyridin-3-yl)-4-(trifluoromethyl)benzamide], it took 4.4 nM to reach half-maximal inhibition (IC50). Take `Cn1ccc(-c2cc(C(=O)Nc3nc(CC(N)=O)ccc3-c3ccccc3)c(F)cc2C(F)(F)F)n1` [Example 205, N-(6-(2-Amino-2-oxoethyl)-3-phenylpyridin-2-yl)-2-fluoro-5-(1-methyl-1H-pyrazol-3-yl)-4-(trifluoromethyl)benzamide]: the IC50 worked out at 8.4 nM. Against the preceding compound, the IC50 is about 1.9-fold higher. Then `Cn1ccc(-c2cc(C(=O)Nc3cc4c(nc3-c3ccccc3)CNC4)c(F)cc2C(F)(F)F)n1` [Example 188, 2-Fluoro-5-(1-methyl-1H-pyrazol-3-yl)-N-(2-phenyl-6,7-dihydro-5H-pyrrolo[3,4-b]pyridin-3-yl)-4-(trifluoromethyl)benzamide], with 2.9 nM; and `Cn1ccc(-c2cc(C(=O)Nc3cnc(CO)nc3-c3ccccc3)ccc2C(F)(F)F)n1` [Example 35, N-(2-(Hydroxymethyl)-4-phenylpyrimidin-5-yl)-3-(1-methyl-1H-pyrazol-3-yl)-4-(trifluoromethyl)benzamide], with 7.3 nM; and `Cn1ccc(-c2cc(C(=O)Nc3cnc4c(c3-c3ccccc3)CCN(C(=O)CO)C4)ccc2C(F)(F)F)n1` [Example 143, N-(7-(2-Hydroxyacetyl)-4-phenyl-5,6,7,8-tetrahydro-1,7-naphthyridin-3-yl)-3-(1-methyl-1H-pyrazol-3-yl)-4-(trifluoromethyl)benzamide], with 19 nM. Then `O=C(Nc1cc(Oc2ccccn2)cnc1-c1ccccc1)c1cc(-c2ncccn2)c(C(F)(F)F)cc1F` [Example 167, 2-fluoro-N-(2-phenyl-5-(pyridin-2-yloxy)pyridin-3-yl)-5-(pyrimidin-2-yl)-4-(trifluoromethyl)benzamide], with 24 nM. `Cn1ccc(-c2cc(C(=O)Nc3cnc(Cn4ccnc4)nc3-c3ccccc3)ccc2C(F)(F)F)n1` [Example 224, N-(2-((1H-imidazol-1-yl)methyl)-4-phenylpyrimidin-5-yl)-3-(1-methyl-1H-pyrazol-3-yl)-4-(trifluoromethyl)benzamide]: the half-inhibitory concentration (IC50) turned out to be 1.6 nM. For `Cn1ccc(-c2cc(C(=O)Nc3cnc(CC(=O)N[C@H]4C[C@@H](O)C4)nc3-c3ccccc3)c(F)cc2C(F)(F)F)n1` [Example 109, 2-fluoro-N-(2-(2-(((1s,3s)-3-hydroxycyclobutyl)amino)-2-oxoethyl)-4-phenylpyrimidin-5-yl)-5-(1-methyl-1H-pyrazol-3-yl)-4-(trifluoromethyl)benzamide] the value was 2.6 nM; for `Cc1ccn(-c2cc(C(=O)Nc3cnc(C)nc3-c3ccccc3)ccc2C(F)(F)F)n1` [Example 17, N-(2-methyl-4-phenylpyrimidin-5-yl)-3-(3-methyl-1H-pyrazol-1-yl)-4-(trifluoromethyl)benzamide], 15 nM. For `Cc1cnn(-c2ccc(C(N)=O)cc2NC(=O)c2ccc(C(F)(F)F)c(-c3ccn(C)n3)c2)c1` [Example 86, N-(5-carbamoyl-2-(4-methyl-1H-pyrazol-1-yl)phenyl)-3-(1-methyl-1H-pyrazol-3-yl)-4-(trifluoromethyl)benzamide] the value was 19 nM; for `Cn1ccc(-c2cc(C(=O)Nc3ncccc3-c3ccccc3)ccc2C(F)(F)F)n1` [Example 22, 3-(1-methyl-1H-pyrazol-3-yl)-N-(3-phenylpyridin-2-yl)-4-(trifluoromethyl)benzamide], 64 nM. Compound `Cn1ccc(-c2cc(C(=O)Nc3ccc(C(C)(C)O)nc3-c3ccccc3)ccc2C(F)(F)F)n1` [Example 47, N-(6-(2-hydroxypropan-2-yl)-2-phenylpyridin-3-yl)-3-(1-methyl-1H-pyrazol-3-yl)-4-(trifluoromethyl)benzamide] gave an IC50 of 1.3 nM.

The compound `Cn1ccc(-c2cc(C(=O)Nc3cnc(CNC(=O)C(C)(N)CO)nc3-c3ccccc3)c(F)cc2C(F)(F)F)n1` (single isomer, unassigned) [Example 66, (S or R)-N-(2-((2-amino-3-hydroxy-2-methylpropanamido)methyl)-4-phenylpyrimidin-5-yl)-2-fluoro-5-(1-methyl-1H-pyrazol-3-yl)-4-(trifluoromethyl)benzamide] registered an IC50 of 1.2 nM.
